Test results reported in the supplement of paper PMC5908809.

Legend:
[1] = test system: normal NK cells expanded with K562-aAPC; assay: drug sensitivity score (DSS) (DSS units); higher = more sensitive; extreme values may be limits of the assay; conditions: 72 h; IL-2 2.5 ng/mL
Method: (§1)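 Drug sensitivity and resistance testing on K562-aAPC-expanded normal NK cells: 5 concentrations (10-fold steps over a 10,000-fold range), 72 h at 37 °C, viability by CellTiter-Glo normalised to DMSO and benzethonium chloride controls; DSS from the fitted curve.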

[2] = test system: NK-92 (IL-2 2.5 ng/mL); assay: percent inhibition of viability; higher = more inhibition; conditions: 72 h
[3] = test system: KHYG-1 (IL-2 2.5 ng/mL); assay: as above; conditions: 72 h
[4] = test system: normal primary NK cells, pool 3 (3 donors) (IL-2 2.5 ng/mL); assay: as above; conditions: 72 h
[5] = test system: NKL (IL-2 2.5 ng/mL); assay: as above; conditions: 72 h
[6] = test system: IMC-1 (IL-2 20 ng/mL); assay: as above; conditions: 72 h
[7] = test system: normal primary NK cells, pool 2 (3 donors) (IL-2 2.5 ng/mL); assay: as above; conditions: 72 h
[8] = test system: normal primary NK cells, pool 1 (3 donors), resting (IL-2 0 ng/mL); assay: as above; conditions: 72 h
[9] = test system: normal primary NK cells, pool 1 (3 donors) (IL-2 2.5 ng/mL); assay: as above; conditions: 72 h
[10] = test system: DERL-7 (IL-2 2.5 ng/mL); assay: as above; conditions: 72 h
[11] = test system: SNK-6 (IL-2 2.5 ng/mL); assay: as above; conditions: 72 h
[12] = test system: YT (IL-2 2.5 ng/mL); assay: as above; conditions: 72 h
[13] = test system: NK-YS (IL-2 2.5 ng/mL); assay: as above; conditions: 72 h
[14] = test system: KAI3 (IL-2 2.5 ng/mL); assay: as above; conditions: 72 h
[15] = test system: NK-92 (IL-2 2.5 ng/mL); assay: drug sensitivity score (DSS) (DSS units); higher = more sensitive; extreme values may be limits of the assay; conditions: 72 h
[16] = test system: KHYG-1 (IL-2 2.5 ng/mL); assay: as above; conditions: 72 h
[17] = test system: normal primary NK cells, pool 3 (3 donors) (IL-2 2.5 ng/mL); assay: as above; conditions: 72 h
[18] = test system: NKL (IL-2 2.5 ng/mL); assay: as above; conditions: 72 h
[19] = test system: IMC-1 (IL-2 20 ng/mL); assay: as above; conditions: 72 h
[20] = test system: normal primary NK cells, pool 2 (3 donors) (IL-2 2.5 ng/mL); assay: as above; conditions: 72 h
[21] = test system: normal primary NK cells, pool 1 (3 donors), resting (IL-2 0 ng/mL); assay: as above; conditions: 72 h
[22] = test system: normal primary NK cells, pool 1 (3 donors) (IL-2 2.5 ng/mL); assay: as above; conditions: 72 h
[23] = test system: DERL-7 (IL-2 2.5 ng/mL); assay: as above; conditions: 72 h
[24] = test system: SNK-6 (IL-2 2.5 ng/mL); assay: as above; conditions: 72 h
[25] = test system: YT (IL-2 2.5 ng/mL); assay: as above; conditions: 72 h
[26] = test system: NK-YS (IL-2 2.5 ng/mL); assay: as above; conditions: 72 h
[27] = test system: KAI3 (IL-2 2.5 ng/mL); assay: as above; conditions: 72 h
[28] = test system: normal NK cells expanded with K562-aAPC; assay: percent inhibition of viability; higher = more inhibition; conditions: 72 h, IL-2 2.5 ng/mL
Method: as §1

CC(=O)O[C@@]12CO[C@@H]1C[C@H](O)[C@@]1(C)C(=O)[C@H](O)C3=C(C)[C@@H](OC(=O)[C@H](O)[C@@H](NC(=O)OC(C)(C)C)c4ccccc4)C[C@@](O)([C@@H](OC(=O)c4ccccc4)[C@H]21)C3(C)C [Docetaxel] (max concentration tested 1000 nM)
Conditions | drug sensitivity score
[1] | 16.8
[15] | 23.4
[16] | 29.3
[17] | 1.58
[18] | 32.2
[19] | 30.5
[20] | 0.25
[21] | 0
[22] | 0
[23] | 30.4
[24] | 28.8
[25] | 31.9
[26] | 25.9
[27] | 18.3

percent inhibition of viability [%]
Conditions | 0.1 nM | 1 nM | 10 nM | 100 nM | 1000 nM
[2] | -6.6 | 2.65 | 46 | 98.9 | 104
[3] | -5.67 | 3.57 | 90.9 | 108 | 109
[4] | -13.5 | -17 | 14 | 7.86 | 24.8
[5] | -13.8 | 29 | 88.5 | 97.8 | 96.7
[6] | -1.65 | 2.39 | 97.9 | 101 | 101
[7] | -10.9 | -7.43 | 13.8 | 3.59 | 13.1
[8] | -16.6 | -21.6 | -3.21 | -14.6 | 1.53
[9] | -5.72 | -1.18 | 7.27 | 4.99 | 10.2
[10] | -4.53 | 0.19 | 99.5 | 100 | 100
[11] | 15 | 38.3 | 77.9 | 76.7 | 70.6
[12] | -3.12 | 22.3 | 90.7 | 105 | 105
[13] | -7.69 | 14.3 | 74.8 | 77.7 | 73.1
[14] | -10.5 | 19.4 | 46.7 | 57.1 | 51.6
[28] | 1.57 | -0.15 | 44.7 | 62.4 | 60.9
